{"source": "ChEMBL document CHEMBL6115031", "about": "“Structure-Based Optimization of Moracin M as Potent and Selective PDE4 Inhibitors with Antipsoriasis Effects” (J Med Chem, 2025)", "key": {"[1]": {"assay": "Metabolic stability in rat liver microsomes assessed as half life at 1 uM incubated upto 60 mins in presence of NADPH by LC-MS/MS analysis", "format": "ADME, Microsome"}, "[2]": {"biological_target": "3',5'-cyclic-AMP phosphodiesterase 4C (Homo sapiens, UniProt Q08493)", "sequence (Q08493 whole entry, the tested form may be a part)": "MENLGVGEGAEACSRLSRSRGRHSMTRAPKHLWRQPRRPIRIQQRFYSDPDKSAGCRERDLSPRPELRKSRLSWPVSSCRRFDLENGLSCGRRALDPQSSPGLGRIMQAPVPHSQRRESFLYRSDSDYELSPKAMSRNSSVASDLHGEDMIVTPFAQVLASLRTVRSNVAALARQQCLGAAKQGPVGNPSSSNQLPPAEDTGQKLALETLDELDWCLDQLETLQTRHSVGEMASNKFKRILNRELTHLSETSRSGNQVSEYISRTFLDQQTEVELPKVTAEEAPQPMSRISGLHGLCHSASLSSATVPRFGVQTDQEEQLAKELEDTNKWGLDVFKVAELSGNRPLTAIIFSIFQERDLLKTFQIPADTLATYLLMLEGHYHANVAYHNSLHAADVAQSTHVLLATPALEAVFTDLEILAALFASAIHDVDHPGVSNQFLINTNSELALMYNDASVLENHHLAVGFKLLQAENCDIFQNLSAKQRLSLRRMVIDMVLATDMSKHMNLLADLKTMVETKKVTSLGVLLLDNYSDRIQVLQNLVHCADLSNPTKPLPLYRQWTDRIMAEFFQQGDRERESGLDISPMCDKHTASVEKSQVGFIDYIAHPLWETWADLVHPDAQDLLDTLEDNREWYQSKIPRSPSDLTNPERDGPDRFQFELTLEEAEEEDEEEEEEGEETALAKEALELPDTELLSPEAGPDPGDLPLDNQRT", "assay": "Inhibition of PDE4C1 (314 to 639 residues) (unknown origin) extracted from Escherichia coli BL21 cells using 3H-cAMP/3H-cGMP as substrate preincubated with compound for 15 mins followed by substrate addition by liquid scintillation counter"}, "[3]": {"biological_target": "cGMP-specific 3',5'-cyclic phosphodiesterase (Homo sapiens, UniProt O76074)", "assay": "Inhibition of PDE5A1 (535 to 860 residues) (unknown origin) extracted from Escherichia coli BL21 cells using 3H-cAMP/3H-cGMP as substrate preincubated with compound for 15 mins followed by substrate addition by liquid scintillation counter"}, "[4]": {"biological_target": "High affinity 3',5'-cyclic-AMP phosphodiesterase 7A (Homo sapiens, UniProt Q13946)", "sequence (Q13946 whole entry, the tested form may be a part)": "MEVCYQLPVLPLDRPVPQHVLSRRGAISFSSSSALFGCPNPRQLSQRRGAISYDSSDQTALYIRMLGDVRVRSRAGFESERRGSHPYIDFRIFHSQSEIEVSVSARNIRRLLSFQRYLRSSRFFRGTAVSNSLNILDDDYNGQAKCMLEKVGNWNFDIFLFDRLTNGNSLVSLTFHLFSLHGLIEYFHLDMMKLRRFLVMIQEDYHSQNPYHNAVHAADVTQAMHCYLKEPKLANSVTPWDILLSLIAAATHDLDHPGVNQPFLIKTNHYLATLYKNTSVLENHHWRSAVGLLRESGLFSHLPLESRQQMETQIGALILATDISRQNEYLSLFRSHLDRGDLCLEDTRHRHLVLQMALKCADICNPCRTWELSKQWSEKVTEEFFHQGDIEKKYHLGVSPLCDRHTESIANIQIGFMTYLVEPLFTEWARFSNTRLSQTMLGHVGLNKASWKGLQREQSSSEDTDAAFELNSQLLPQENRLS", "assay": "Inhibition of PDE7A1 (130 to 482 residues) (unknown origin) extracted from Escherichia coli BL21 cells using 3H-cAMP/3H-cGMP as substrate preincubated with compound for 15 mins followed by substrate addition by liquid scintillation counter"}, "RAW264.7 [5]": {"system": "RAW264.7", "assay": "Cytotoxicity against mouse RAW264.7 cells assessed as reduction in cell viability at 5 to 80 uM incubated for 24 hrs by CCK-8 assay", "format": "toxicity, cell-based", "settings": "raw264.7, 24 h, dose 5-80 µM"}, "RAW264.7 [6]": {"system": "RAW264.7", "assay": "Anti-inflammatory activity in LPS-stimulated mouse RAW264.7 cells assessed as reduction in TNF-alpha mRNA level pretreated with compound for 2 hrs followed by LPS stimulation and measured after 6 hrs by q-PCR analysis", "format": "functional, cell-based", "settings": "dose 5-20 µM, time 8.0 hrs"}, "HaCaT [7]": {"system": "HaCaT", "assay": "Anti-inflammatory activity in M5- stimulated human HaCaT cells assessed as reduction in TNF-alpha mRNA level incubated for 24 hrs by q-PCR analysis", "format": "functional, cell-based", "settings": "dose 5-20 µM"}, "HaCaT [8]": {"system": "HaCaT", "assay": "Anti-inflammatory activity in M5- stimulated human HaCaT cells assessed as reduction in IL-17 mRNA level incubated for 24 hrs by q-PCR analysis", "format": "functional, cell-based", "settings": "dose 5-20 µM"}, "HaCaT [9]": {"system": "HaCaT", "assay": "Anti-inflammatory activity in M5- stimulated human HaCaT cells assessed as reduction in CXCL-2 mRNA level incubated for 24 hrs by q-PCR analysis", "format": "functional, cell-based", "settings": "dose 5-20 µM"}, "HaCaT [10]": {"system": "HaCaT", "assay": "Anti-psoriasis effect in M5-stimulated human HaCaT cells assessed as inhibition of cell proliferation at 20 uM pretreated with M5 followed by compound addition and measured after 24 hrs", "format": "functional, cell-based"}, "HaCaT [11]": {"system": "HaCaT", "assay": "Anti-psoriasis effect in M5-stimulated human HaCaT cells assessed as decrease in K6 protein expression at 20 uM pretreated with M5 followed by compound addition and measured after 24 hrs by Western blotting analysis", "format": "functional, cell-based"}, "HaCaT [12]": {"system": "HaCaT", "assay": "Anti-psoriasis effect in M5-stimulated human HaCaT cells assessed as decrease in K17 protein expression at 20 uM pretreated with M5 followed by compound addition and measured after 24 hrs by Western blotting analysis", "format": "functional, cell-based"}, "HaCaT [13]": {"system": "HaCaT", "assay": "Anti-psoriasis effect in M5-stimulated human HaCaT cells assessed as upregulation of K1 protein expression at 20 uM pretreated with M5 followed by compound addition and measured after 24 hrs by Western blotting analysis", "format": "functional, cell-based"}, "HaCaT [14]": {"system": "HaCaT", "assay": "Anti-psoriasis effect in M5-stimulated human HaCaT cells assessed as upregulation of K10 protein expression at 20 uM pretreated with M5 followed by compound addition and measured after 24 hrs by Western blotting analysis", "format": "functional, cell-based"}, "HaCaT [15]": {"system": "HaCaT", "assay": "Anti-psoriasis activity in M5-stimulated human HaCaT cells assessed as restoration of cAMP level at 20 uM incubated for 2 hrs by competitive ELISA", "format": "functional, cell-based"}, "HaCaT [16]": {"system": "HaCaT", "assay": "Inhibition of CREB phosphorylation in human HaCaT cells assessed as increase in pCREB/CREB ratio at 20 uM incubated for 2 hrs by Western blotting analysis", "format": "cell-based"}, "Mus musculus [17]": {"system": "Mus musculus", "assay": "Anti-psoriasis effect in IMQ-induced female BALB/c mouse assessed as reduction in psoriasis severity index score at 20 mg/kg administered topically as 0.3 % ointment pretreated with IMQ for 6 hrs followed by compound addition once daily for 7 days", "format": "functional, organism-based", "settings": "time 7.0 day"}, "Mus musculus [18]": {"system": "Mus musculus", "assay": "Anti-psoriasis effect in IMQ-induced female BALB/c mouse assessed as decrease in skin thickness at 20 mg/kg administered topically as 0.3 % ointment pretreated with IMQ for 6 hrs followed by compound addition once daily for 7 days", "format": "functional, organism-based", "settings": "time 7.0 day"}, "Mus musculus [19]": {"system": "Mus musculus", "assay": "Anti-psoriasis effect in IMQ-induced female BALB/c mouse assessed as decrease in erythema scores at 20 mg/kg administered topically as 0.3 % ointment pretreated with IMQ for 6 hrs followed by compound addition once daily for 7 days", "format": "functional, organism-based", "settings": "time 7.0 day"}, "Mus musculus [20]": {"system": "Mus musculus", "assay": "Anti-psoriasis effect in IMQ-induced female BALB/c mouse assessed as change in size of spleen at 20 mg/kg administered topically as 0.3 % ointment pretreated with IMQ for 6 hrs followed by compound addition once daily for 7 days by H and E staining based analysis", "format": "functional, organism-based", "settings": "time 7.0 day"}, "Mus musculus [21]": {"system": "Mus musculus", "assay": "Anti-psoriasis effect in IMQ-induced female BALB/c mouse assessed as change in weight of spleen at 20 mg/kg administered topically as 0.3 % ointment pretreated with IMQ for 6 hrs followed by compound addition once daily for 7 days by H and E staining based analysis", "format": "functional, organism-based", "settings": "time 7.0 day"}, "Mus musculus [22]": {"system": "Mus musculus", "assay": "Anti-inflammatory activity in IMQ-induced psoriasis in female BALB/c mouse assessed as reduction in TNF-alpha mRNA level at 20 mg/kg administered topically as 0.3 % ointment pretreated with IMQ for 6 hrs followed by compound addition once daily for 7 days by q-PCR analysis", "format": "functional, organism-based", "settings": "time 7.0 day"}, "Mus musculus [23]": {"system": "Mus musculus", "assay": "Anti-inflammatory activity in IMQ-induced psoriasis in female BALB/c mouse assessed as reduction in IL-6 mRNA level at 20 mg/kg administered topically as 0.3 % ointment pretreated with IMQ for 6 hrs followed by compound addition once daily for 7 days by q-PCR analysis", "format": "functional, organism-based", "settings": "time 7.0 day"}, "Mus musculus [24]": {"system": "Mus musculus", "assay": "Anti-inflammatory activity in IMQ-induced psoriasis in female BALB/c mouse assessed as reduction in IL-17 mRNA level at 20 mg/kg administered topically as 0.3 % ointment pretreated with IMQ for 6 hrs followed by compound addition once daily for 7 days by q-PCR analysis", "format": "functional, organism-based", "settings": "time 7.0 day"}, "Mus musculus [25]": {"system": "Mus musculus", "assay": "Anti-inflammatory activity in IMQ-induced psoriasis in female BALB/c mouse assessed as reduction in CXCL-2 mRNA level at 20 mg/kg administered topically as 0.3 % ointment pretreated with IMQ for 6 hrs followed by compound addition once daily for 7 days by q-PCR analysis", "format": "functional, organism-based", "settings": "time 7.0 day"}, "Mus musculus [26]": {"system": "Mus musculus", "assay": "Anti-psoriasis effect in IMQ-induced female BALB/c mouse model assessed as reduction in fibroblast proliferation at 20 mg/kg administered topically as 0.3 % ointment pretreated with IMQ for 6 hrs followed by compound addition once daily for 7 days by H and E staining based analysis", "format": "functional, organism-based", "settings": "time 7.0 day"}, "Mus musculus [27]": {"system": "Mus musculus", "assay": "Anti-psoriasis effect in IMQ-induced female BALB/c mouse model assessed as reduced bleeding in dermal papilla layers at 20 mg/kg administered topically as 0.3 % ointment pretreated with IMQ for 6 hrs followed by compound addition once daily for 7 days by H and E staining based analysis", "format": "functional, organism-based", "settings": "time 7.0 day"}, "Mus musculus [28]": {"system": "Mus musculus", "assay": "Anti-psoriasis effect in female BALB/c mouse model assessed as increase in K10 protein expression at 20 mg/kg administered topically as 0.3 % ointment pretreated with IMQ for 6 hrs followed by compound addition once daily for 7 days by Western blotting analysis", "format": "functional, organism-based", "settings": "time 7.0 day"}}, "note": "The source made the active and inactive calls. The rule behind the calls is not given here."}
{"molecule": "COC(=O)[C@H]1C[C@@H](Oc2c(O)ccc3cc(-c4ccc(OC(F)F)c(OCC5CC5)c4)oc23)CN1", "values": [{"measurement": "half-life at 1 µM", "setting": "[1]", "value": 22.9, "unit": "min"}, {"measurement": "IC50", "setting": "[2]", "value": 0.747, "unit": "µM"}, {"measurement": "IC50", "setting": "[3]", "value": 1.73, "unit": "µM"}, {"measurement": "IC50", "setting": "[4]", "value": 5.91, "unit": "µM"}, {"measurement": "Activity", "setting": "RAW264.7 [5]", "value": "Non-toxic"}, {"measurement": "Activity", "setting": "RAW264.7 [6]", "value": "Dose-dependent-effect"}, {"measurement": "Activity", "setting": "HaCaT [7]", "value": "Dose-dependent-effect"}, {"measurement": "Activity", "setting": "HaCaT [8]", "value": "Dose-dependent-effect"}, {"measurement": "Activity", "setting": "HaCaT [9]", "value": "Dose-dependent-effect"}, {"measurement": "Activity", "setting": "HaCaT [10]", "value": "Active"}, {"measurement": "Activity", "setting": "HaCaT [11]", "value": "Active"}, {"measurement": "Activity", "setting": "HaCaT [12]", "value": "Active"}, {"measurement": "Activity", "setting": "HaCaT [13]", "value": "Active"}, {"measurement": "Activity", "setting": "HaCaT [14]", "value": "Active"}, {"measurement": "Activity", "setting": "HaCaT [15]", "value": "Active"}, {"measurement": "inhibition", "setting": "HaCaT [16]", "value": "Active"}, {"measurement": "Activity", "setting": "Mus musculus [17]", "value": "Active"}, {"measurement": "Activity", "setting": "Mus musculus [18]", "value": "Active"}, {"measurement": "Activity", "setting": "Mus musculus [19]", "value": "Active"}, {"measurement": "Activity", "setting": "Mus musculus [20]", "value": "Active"}, {"measurement": "Activity", "setting": "Mus musculus [21]", "value": "Active"}, {"measurement": "Activity", "setting": "Mus musculus [22]", "value": "Active"}, {"measurement": "Activity", "setting": "Mus musculus [23]", "value": "Active"}, {"measurement": "Activity", "setting": "Mus musculus [24]", "value": "Active"}, {"measurement": "Activity", "setting": "Mus musculus [25]", "value": "Active"}, {"measurement": "Activity", "setting": "Mus musculus [26]", "value": "Active"}, {"measurement": "Activity", "setting": "Mus musculus [27]", "value": "Active"}, {"measurement": "Activity", "setting": "Mus musculus [28]", "value": "Active"}]}
